Data: paper PMC9232448 (European Journal of Drug Metabolism and Pharmacokinetics, 2022)
Like-named read-outs stand apart in the source and are kept apart here.

How the values were obtained:
CYP3A = conditions: human, in vivo; cited from earlier work
CYP3A4 mRNA = CYP3A4 mRNA induction in plated cryopreserved human hepatocytes; assay type: cell-based; conditions: three donors; for true negative in vitro induction: statistical dose response and fold induction
[1] = cited from earlier work
[2] = Metabolic stability in hepatocyte induction incubations; assay type: in vitro ADME, human; conditions: last 24 hours of the incubation
human hepatocytes = experiment: Cytotoxicity / bell-shaped curves in hepatocyte induction incubations; assay type: cell-based; conditions: for concentrations removed from fitting (bell-shaped curve, suspected cytotoxicity): all donors; for concentration above which cytotoxicity was seen: donor two
[3] = cited from earlier work; remark: listed apart in the source
[4] = Estimated free fraction in culture medium; conditions: bovine, hepatocyte culture medium with 1.25 mg/ml BSA
[5] = reported value before fu was set to 0.01

In the case of `NC(=O)N1c2ccccc2C=Cc2ccccc21` [Carbamazepine], the AUCR range (CYP3A) is listed as 0.124–0.603.

For `Cn1cnc2c(F)c(Nc3ccc(Br)cc3F)c(C(=O)NOCCO)cc21` [Binimetinib], the “concentration-dependent increase in CYP3A4 mRNA” value (“concentration-dependent increase” for short) (CYP3A4 mRNA) was “concentration-dependent increases in all three donors”.

In the case of `CC(C)N(CCCCOCC(=O)NS(C)(=O)=O)c1cnc(-c2ccccc2)c(-c2ccccc2)n1` [Selexipag, selexipag], the “concentration-dependent increase” value (CYP3A4 mRNA) is given as “concentration-dependent increases in all three donors” and the “fu (reported plasma protein binding)” value [1, 5] is given as less than 0.01.

In the case of `O=C(O)CSc1nnc(Br)n1-c1ccc(C2CC2)c2ccccc12` [Lesinurad, lesinurad], the “% loss when comparing the Cavg to the T0 concentration (limited depletion)” value (shortened to “% loss … (limited depletion)”) [2] is reported as less than 25%, the “concentrations removed from fitting (bell-shaped curve, suspected cytotoxicity)” value (human hepatocytes) is reported as greater than 100 µM and the “concentration-dependent increase” value (CYP3A4 mRNA) is reported as “concentration-dependent increases in all three donors”.

With `C[C@H](Cn1cnc2c(N)ncnc21)OCP(=O)(O)O` [Tenofovir, tenofovir] the “% loss … (limited depletion)” value [2] was less than 25% and the “true negative in vitro induction” value (CYP3A4 mRNA) was “true in vitro negatives in all three donors”.

For `CN(CCOc1ccc(CC2SC(=O)NC2=O)cc1)c1ccccn1` (stereo not drawn) [rosiglitazone], the “observed fu,in vitro” value [3] is given as 0.15.

With `Cc1cc(/C=C/C#N)cc(C)c1Nc1ccnc(Nc2ccc(C#N)cc2)n1` [Rilpivirine, rilpivirine] the “concentration above which cytotoxicity was seen” value (human hepatocytes) was greater than 100 µM, the “concentration above which signs of cytotoxicity were seen” value (human hepatocytes; donors one) was greater than 30 µM and the “concentration-dependent increase” value (CYP3A4 mRNA) was “concentration-dependent increases in all three donors”.

In the case of `O=C1Nc2ccc(Cl)cc2[C@@](C#CC2CC2)(C(F)(F)F)O1` [Efavirenz], the AUCR range (CYP3A) is listed as 0.240–0.929 and the “fu (reported plasma protein binding)” value ([1]; plasma) is listed as 0.0025.

In the case of `COc1ccccc1Oc1c(NS(=O)(=O)c2ccc(C(C)(C)C)cc2)nc(-c2ncccn2)nc1OCCO` [Bosentan], the “observed fu,in vitro” value [3] is listed as 0.38.

In the case of `CCC1(c2ccccc2)C(=O)NC(=O)NC1=O` [Phenobarbital], the AUCR (CYP3A) is listed as 0.394.

For `O=C1NC(=O)C(c2ccccc2)(c2ccccc2)N1` [Phenytoin], the AUCR range (CYP3A) is given as 0.105–0.607.

With `O=C(O)c1ccc(CN2C[C@@H]3C[C@H]2CN3Cc2ccc(Oc3ccc(-c4ncco4)cc3)cc2)cc1` [Acebilustat, acebilustat] the “% loss … (limited depletion)” value [2] was less than 25% and the “true negative in vitro induction” value (CYP3A4 mRNA) was “true in vitro negatives in all three donors”.

In the case of `CC(C)OC(=O)[C@H](C)N[P@](=O)(OC[C@H]1O[C@@H](n2ccc(=O)[nH]c2=O)[C@](C)(F)[C@@H]1O)Oc1ccccc1` [Sofosbuvir, sofosbuvir], the “concentrations removed from fitting (bell-shaped curve, suspected cytotoxicity)” value (human hepatocytes) is reported as 300 µM, the “true negative in vitro induction” value (CYP3A4 mRNA) is reported as “negative in one donor” and the “concentration-dependent increase” value (CYP3A4 mRNA) is reported as “concentration-dependent increases in two of three donors”.

In the case of `Cc1nnc(C(=O)NC(C)(C)c2nc(C(=O)NCc3ccc(F)cc3)c(O)c(=O)n2C)o1` [Raltegravir, raltegravir], the “true negative in vitro induction” value (CYP3A4 mRNA) is reported as “true in vitro negatives in all three donors”.

With `Nc1nc(-n2cc(C(=O)O)c(=O)c3cc(F)c(N4CC(O)C4)c(Cl)c32)c(F)cc1F` [Delafloxacin, delafloxacin] the “% loss … (limited depletion)” value [2] was less than 25%, the “concentration at which apparent cytotoxicity was seen” value (human hepatocytes; donor three) was 300 µM and the “concentration above which cytotoxicity was seen” value (human hepatocytes) was greater than 100 µM. For the same molecule, the “true negative in vitro induction” value (CYP3A4 mRNA) was “negative in two donors” and the “concentration-dependent increase” value (CYP3A4 mRNA) was “concentration-dependent increases in one of three donors”.

In the case of `Cn1c(Cn2ccc(C(F)(F)F)c(Oc3cc(Cl)cc(C#N)c3)c2=O)n[nH]c1=O` [Doravirine, doravirine], the “% loss … (limited depletion)” value [2] is reported as less than 25% and the “concentration-dependent increase” value (CYP3A4 mRNA) is reported as “concentration-dependent increases in all three donors”.

In the case of `CCc1ccc(CCOc2ccc(CC3SC(=O)NC3=O)cc2)nc1` (stereo not drawn) [pioglitazone], the “observed fu,in vitro” value [3] is given as 0.22.

In the case of `O=C(O)c1ccc2nc(-c3cc(Cl)cc(Cl)c3)oc2c1` [Tafamidis, tafamidis], the “% loss … (limited depletion)” value [2] is listed as less than 25%, the “concentration-dependent increase” value (CYP3A4 mRNA) is listed as “concentration-dependent increases in all three donors” and the “fu (reported plasma protein binding)” value ([1]; plasma) is listed as 0.005.

In the case of `Cc1cc(CCCOc2c(C)cc(-c3noc(C(F)(F)F)n3)cc2C)on1` [Pleconaril], the fraction unbound [4] is given as 0.256, the “correction factor applied to nominal concentrations (nonspecific binding)” value [3] is given as 0.2 and the “fu (reported plasma protein binding)” value [1, 5] is given as 0.01.

With `CO[C@H]1/C=C/O[C@@]2(C)Oc3c(C)c(O)c4c(O)c(c5c(nc6cc(C)ccn65)c4c3C2=O)NC(=O)/C(C)=C\C=C\[C@H](C)[C@H](O)[C@@H](C)[C@@H](O)[C@@H](C)[C@H](OC(C)=O)[C@@H]1C` [Rifaximin, rifaximin] the “% loss … (limited depletion)” value [2] was less than 25% and the “concentration-dependent increase” value (CYP3A4 mRNA) was “concentration-dependent increases in all three donors”.

With `CCC(=O)NC[C@@H]1C[C@H]1c1cccc2c1CCO2` [Tasimelteon, tasimelteon] the “concentration-dependent increase” value (CYP3A4 mRNA) was “concentration-dependent increases in all three donors”.

For `CO[C@H]1/C=C/O[C@@]2(C)Oc3c(C)c(O)c4c(O)c(c(/C=N/N5CCN(C)CC5)c(O)c4c3C2=O)NC(=O)/C(C)=C\C=C\[C@H](C)[C@H](O)[C@@H](C)[C@@H](O)[C@@H](C)[C@H](OC(C)=O)[C@@H]1C` [Rifampicin], the “% loss … (limited depletion)” value [2] was less than 25%.
